{"source": "patent US20250082720A1", "about": "“NEW PEPTIDE AND USES THEREOF” (Neo Cremar Co., Ltd., priority 2021, published 2025)", "type_in_all_cases": "cell-based, mouse", "key": {"3T3L1 cells": {"system": "3T3L1 cells", "assay": "3T3L1 cell proliferation (MTT method)", "conditions": "3T3L1, peptide 1000 nM, 2 days, FIG. 13A", "experimental": "3T3L1 cells, mouse fibroblasts, were cultured in Dulbecco's Modified Eagle's Medium (DMEM)+10% fetal bovine serum (FBS)+1% penicillin/streptomycin (P/S). To validate the effect of MIF peptide, 3T3L1 cells (2×10^3 cells/ml) were placed in a 12-well cell culture dish, attached for 24 hours, and treated with MIF peptide (1000 nM) for 2 days, followed by observation of cell proliferation by MTT method. The medium was replaced once every 2 days, and the cells were cultured at 37° C.\n(§1) To validate cell proliferation, the culture medium of the cells was removed, the cells were washed with DMEM, 500 μl of MTT reagent (0.5 mg/ml) dissolved in phosphate buffered saline (PBS) was added to each well, and the cells were left at 37° C. for 1 hour. The reaction solution was removed, and 1000 μl of DMSO was added to each well. Purple formazan crystals were completely dissolved in DMSO, and the absorbance was measured at 540 nm."}, "C2C12 cells [1]": {"system": "C2C12 cells", "assay": "Expression of myodifferentiation-related factors (real-time PCR, Western blot, immunocytochemistry)", "experimental": "After adding 1 ml of TRIzol™ reagent, the cells were crushed using a sonicator. After centrifugation of the crushed sample (12,000 rpm, 10 min, 4° C.), the supernatant was transferred to a new tube, added with 200 μl of chloroform, and left at room temperature for 10 minutes. After 10 minutes, centrifugation (12,000 rpm, 10 min, 4° C.) was performed, yielded a transparent supernatant. Next, 500 μl of isopropanol was added, the mixture was left for 10 minutes, and centrifugation was performed to obtain RNA pellets. After washing by adding 70% ethanol (distilled water treated with ethanol+diethylpyrocarbonate (hereinafter referred to as DEPC)) to the RNA pellets, complete removal and drying were followed. The dried transparent RNA was added with DEPC-treated distilled water and then stored at −80° C. Total RNA volume was measured by nanodrop, and the 18s and 28s bands were detected in 1.2% agarose gel. cDNA was synthesized with 2 μg of total RNA, random hexamer primers, and reverse transcriptase (25° C.: 10 min, 37° C.: 120 min, 85° C.: 5 min).\nReal-time PCR (RT-PCR) was performed for detecting gene expression. For observation of real-time gene expression, gene expression was analyzed using the Power SYBR Green PCR Master Mix, which includes fluorescent materials of SYBR green (7500 Real-time PCR system). The PCR primer was designed with Primer 3 software (http://frodo.wi.mit.edu) according to the nucleotide sequence secured from NCBI GenBank. PCR was performed 40 times at 95° C. for 10 minutes, again at 95° C. for 33 seconds, at gene primer temperature (tm) for 33 seconds, and at 72° C. for 33 seconds. Gene expression values were analyzed through the analysis of c(t) values obtained through real-time PCR analysis (fold change 2-ΔΔCt formula). Setting the gene expression value of the untreated cells to 1, the gene expression value of the treated cells was calculated. In the analysis of gene c(t) values, normalization was conducted with the glyceraldehyde-3-phosphate dehydrogenase (GAPDH).\nThe medium of cultured C2C12 cells was removed and washed once with PBS. The washed cells were treated with 4% formaldehyde (Sigma), fixed for 15 minutes, then washed using PBS, added with 0.2% trypton X-100 (Sigma), and left for 5 minutes. After washing again using PBS, adding 1% normal goat serum, and leaving for 30 minutes, the primary antibody (MYOD, myogenin (MYOG): myosin light chain (MYL2); 1:50) was added to carry out a reaction at 4° C. for 14 hours. The antibodies were removed, washing was performed 3 times with PBS for 10 minutes, and then the cells were left with secondary antibody (Alexa Fluor 488 goat anti-Mouse & rabbit SFX kit t) for 1 hour. After 1 hour, the antibodies were removed, washing was performed with PBS for 10 minutes, the nuclei were stained with 4′,6-diamidino-2-phenylindol (DAPI), and the expression of the proteins was observed using fluorescence microscopy.\n(1) The medium of cultured C2C12 cells was removed, followed by washing with PBS. After adding LIPA buffer and protease inhibitor to the washed cells, the proteins included in the supernatant were collected after centrifugation for 10 minutes at 12000 rpm. 40 μg of the extracted proteins were subjected to electrophoresis in 8 to 10% acrylamide gel and then transferred to a polyvinylidene fluoride (PVDF) membrane (Milipore). These were blocked with 3% skim milk or bovine serum albumin (BSA) at room temperature for 1 hour. Afterwards, primary antibody diluted in 1% skim milk or BSA (Pax7; 1:500, MYOD; 1:500, MYOG; 1:400, MYL2; 1:1000, MYH; 1:500, MSTN; 1:1000, β-actin; 1:1000, MuRF1; 1:400, and Atrogin; 1:1:400) was added and reacted at 4° C. for over 16 hours. After 16 hours, cells were washed three times with TBST (Tris-buffered saline with Tween 20) and reacted with secondary antibody with horseradish peroxidase (HRP) conjugated at room temperature for 1 hour. […]"}, "C2C12 cells [2]": {"system": "C2C12 cells", "assay": "C2C12 myoblast proliferation (MTT method)", "conditions": "C2C12, peptide 1000 nM, 1 day, MTT, FIG. 4", "experimental": "C2C12 cells, a mouse myoblast line, were cultured in Dulbecco's Modified Eagle's Medium (DMEM)+10% fetal bovine serum (FBS)+1% penicillin/streptomycin (P/S). To validate the effect of MIF peptide, C2C12 cells (2×10^3 cells/ml) were placed in a 12 well cell culture dish and attached for 24 hours, and MIF2 or Ac-MIF2-NH2 peptide (1000 nM) was treated for 1 day to observe cell proliferation by MTT method. The medium was replaced every 2 days, and the cells were cultured at 37° C.\nas §1"}, "[3]": {"conditions": "C2C12 differentiation, versus control"}, "[4]": {"conditions": "C2C12 myodifferentiation, FIG. 8"}}}
{"substance": "Ac-VDFEAGDWFW-NH2 [Ac-MIF2-NH2, MIF2 peptide with acetylated N-terminus and amidated C-terminus]", "values": [{"measurement": "decrease in proliferation compared to cells without peptide treatment", "setting": "3T3L1 cells", "value": 10, "unit": "%"}, {"measurement": "MSTN protein expression", "setting": "C2C12 cells [1]; [3]", "value": "reduced"}, {"measurement": "mRNA and protein expression of MYOD, MYOG, MYL2, and MYH", "setting": "C2C12 cells [1]; [3]", "value": "increased"}, {"measurement": "ACVRIIB protein expression", "setting": "C2C12 cells [1]; [4]", "value": "reduced"}, {"measurement": "gene expression of Atrogin1 and MuRF1", "setting": "C2C12 cells [1]; [4]", "value": "reduced"}, {"measurement": "increase in cell proliferation compared to cells without peptide treatment", "setting": "C2C12 cells [2]", "value": 33, "unit": "%"}]}
